Results reported in patent publication US20150079089A1, “EMP2 REGULATES ANGIOGENESIS IN CANCER CELLS THROUGH INDUCTION OF VEGF” (THE REGENTS OF THE UNIVERSITY OF CALIFORNIA, priority 2012, published 2015).
“Also recorded” adds a separate entry of the source.

What was measured:
[1] = tested on: HIF-1a; experiment: HIF-1a expression by Western blot in HEC1a/EMP2 cells treated with kinase inhibitors in a hypoxic chamber; assay type: cell-based, human; details: 24 hrs, 1.0% hypoxic chamber
Protocol: To determine if EMP2 expression altered VEGF expression and secretion, cells were placed in a hypoxic chamber for 24 hours. EMP2 expression directly correlated with VEGF protein levels (FIG. 4B) as well as with secreted protein (FIG. 4C). […] Western blot analysis was carried out by Cells were lysed in Laemmli buffer. Proteins were separated by SDS-PAGE, transferred to a nitrocellulose membrane (Amersham Biosciences), and stained with Ponceau S (Sigma-Aldrich, St. Louis, Mo.) to determine transfer efficiency. Membranes were blocked with 10% low fat milk in PBS containing 0.1% Tween 20 and probed with EMP2 antisera (1:1000), anti-VEGF (Santa Cruz Biotech), antiHIF-1a (1:800; BD Biosciences), anti-PPAR-y (Santa Cruz Biotech), anti-p-Src (Cell Signaling, Danvers). Protein bands were visualized using a horseradish peroxidase (HRP)-labeled secondary antibody (BD Biosciences) followed by chemiluminescence (ECL; Amersham Biosciences). Band intensities were quantified using the NIH program Image J as above. To account for loading variability β-actin was used to normalize each sample. At least three independent experiments were performed and, where indicated, the results were evaluated for statistical significance using a Student's t-test (unpaired, one-tail). A level of P<0.05 was considered to be statistically significant.
In some experiments, inhibitors were added to determine the contribution of specific pathways to HIF-1a expression. HEC1a/EMP2 cells were treated with 10 μM of the kinase inhibitor Ly294002 (Cell Signaling), the EGFR inhibitor Erlotinib e; 10 μM, Genentech), or the Src family tyrosine kinase inhibitor Dasatinib e; 10 μM, Bristol-Myers Squibb). Efficacy of the inhibitors was tested at the manufacturer's recommended dosage, and potential toxicity was measured using trypan-blue exclusion. Samples were harvested and probed by SDS-PAGE/Western blot analysis as above […]
Using common inhibitors of AKT, PI3-kinase, EGFR, and Src tyrosine kinases, HEC1a/EMP2 cells were treated with these agents while in a hypoxic chamber.

[2] = tested on: human aortic endothelial cell (HAEC); experiment: Boyden chamber migration of HAEC towards cultured tumor cell supernatants; assay type: cell-based; details: added at 10μg/ml to the cultured tumor cell supernatant
Protocol: FIG. 4 depicts that EMP2 regulates VEGF expression. (A) A Boyden chamber assay was used to determine human aortic endothelial cell (HAEC) response to cultured tumor cell supernatants. In some experiments, the antiVEGF antibody Avastin® which binds soluble VEGF was added at 10μg/ml to the cultured supernatant. (B) The expression of total VEGF was measured using Western blot analysis. EMP2 expression was visualized to verify modulation of EMP2 in the cell lines; β-Actin was used as the loading control. (C) Secreted VEGF was measured using an ELISA. (D) Semi-quantitative expression of VEGF mRNA was determined using RTPCR. The experiment was repeated three times with similar results, and a representative blot is shown. GAPDH expression serves as a loading control. (E) Left, To determine the mechanism for VEGF regulation, HIF-1 a and PP ARy expression was determined using Western blot analysis. β-Actin expression serves as the loading control. Right, Quantization of HIF-1a expression relative to β-Actin for three independent experiments. The data represents the mean±SEM. […] Appropriate vehicle control cells are included. Western blot analysis was used to show the expression of EMP2, HIF-1a, and β-Actin in these cells.
Human umbilical vein endothelial cells (HUVEC) from passage 2 were purchased from BD Biosciences (San Diego, Calif.) and used between passages 3 and 7 for all experiments. […]

[3] = tested on: HUVEC; details: supernatants of HEC1a/RIBO or HEC1a/shRNA 911; 20 or 50 µg/ml
Text: Migration assays. […] The experiment was repeated three times.

| Molecule | EMP2-induced HIF-1a expression [1] | further results |
| --- | --- | --- |
| O=c1[nH]c2ccccc2n1C1CCN(Cc2ccc(-c3nc4cc5[nH]cnc5cc4nc3-c3ccccc3)cc2)CC1 [AKTi, Akt inhibitor VIII] | did not alter HIF-1a expression | EMP2-induced HIF-1a expression ([1]; listed as AKT inhibitors): did not suppress |
| CC(C)(C)n1nc(-c2ccc(Cl)cc2)c2c(N)ncnc21 [PP2] | reversed | – |
| C#Cc1cccc(Nc2ncnc3cc(OCCOC)c(OCCOC)cc23)c1 [erlotinib, Erlotinib] | produced a similar effect; also recorded: sufficient to inhibit its expression | – |
| Bevacizumab | – | HAEC migration [2]: reduced HAEC migration to control levels |
| VEGF | – | HUVEC cell tube formation [3]: sufficient to induce HUVEC cell tube formation |
